Tests used:
[1] = molecular target: T1, human GPR40 (Homo sapiens, UniProt O14842); assay: GPR40 calcium flux assay, HEK293 cells stably expressing human GPR40; type: cell-based; details: transfected HEK293 cells stably expressing human GPR40, Fluo 8 dye, read-out: hGPR40 Ca2+ Assay EC50
T1 construct: expressed in transfected cells
Experimental: (§1) Compounds were tested in a calcium flux assay using transfected HEK293 cells stably expressing either human GPR40 or rat GPR40. Human GPR40 expressing cells were cultured in DMEM-High Glucose media supplemented with 10% fetal bovine serum, 1×L-Glutamine, 1×Penicillin/Streptomycin and 500 μg/mL G418. Rat GPR40 expressing cells were cultured in DMEM-High Glucose media supplemented with 10% fetal bovine serum and 1 μg/mL puromycin. Cells were plated into poly-D-lysine coated 384-well plates and cultured overnight in a 37° C. humidified tissue culture incubator under 5% CO2/[…] atmosphere. On the day of the experiment, the culture media was replaced with assay buffer (HBSS, 20 mM HEPES, 0.1% BSA) and the cells incubated at 37° C. for 1 h. Calcium-sensitive fluorescent dye (Fluo 8 No-Wash Calcium Dye, ABD Bioquest) was then added and the cells incubated for another 30 min at 37° C. followed by 15 min at room temperature while protected from the light. The cell plate and a plate of diluted compounds of Formula (I) were loaded into a fluorescent plate reader that added compounds onto the cells while measuring the fluorescence intensity of each well. The plate reader recorded fluorescence intensity at 1 second intervals for 8 min and provided the data for analysis in an Excel format. EC50 values were calculated using Prism (GraphPad) software.

[2] = molecular target: T2, rat GPR40 (Rattus norvegicus, UniProt Q8K3T4); assay: GPR40 calcium flux assay, HEK293 cells stably expressing rat GPR40; type: cell-based; details: transfected HEK293 cells stably expressing rat GPR40, Fluo 8 dye, read-out: rGPR40 Ca2+ Assay EC50
T2 construct: expressed in transfected cells
T2 sequence (Q8K3T4 whole entry): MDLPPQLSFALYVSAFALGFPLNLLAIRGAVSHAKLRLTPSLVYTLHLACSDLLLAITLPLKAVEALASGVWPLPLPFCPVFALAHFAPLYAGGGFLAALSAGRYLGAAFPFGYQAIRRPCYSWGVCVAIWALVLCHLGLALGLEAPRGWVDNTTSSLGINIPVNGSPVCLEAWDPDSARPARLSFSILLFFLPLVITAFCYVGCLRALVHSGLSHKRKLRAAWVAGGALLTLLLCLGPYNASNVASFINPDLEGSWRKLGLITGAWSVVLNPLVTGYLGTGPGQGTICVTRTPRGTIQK
Experimental: as §1

T1 sequence (O14842 whole entry): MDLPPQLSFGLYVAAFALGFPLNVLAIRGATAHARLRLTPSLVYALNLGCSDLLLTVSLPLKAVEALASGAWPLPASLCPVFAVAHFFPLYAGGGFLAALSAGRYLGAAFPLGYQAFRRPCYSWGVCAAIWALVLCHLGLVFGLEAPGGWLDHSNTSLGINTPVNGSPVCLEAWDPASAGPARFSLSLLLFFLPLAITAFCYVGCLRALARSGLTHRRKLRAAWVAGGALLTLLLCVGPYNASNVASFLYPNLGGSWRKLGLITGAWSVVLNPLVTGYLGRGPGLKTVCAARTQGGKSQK

SMILES	EC50 [1]	EC50 [2]
COc1ccc(F)c(C2CCC(COc3cccc(C(CC(=O)O)C4CC4)c3)CC2)c1 (centres unmarked) [Cpd 55, 3-Cyclopropyl-3-(3-(((1 s,4 s)-4-(2-fluoro-5-methoxyphenyl)cyclohexyl)methoxy)phenyl)propanoic acid]	133 nM	346 nM
CCc1ccc(F)c([C@H]2CC[C@H](COc3cccc([C@H](C4CC4)C(C)(F)C(=O)O)c3)CC2)c1 (stereo partly drawn) [Cpd 68, (3S)-3-Cyclopropyl-3-(3-(((1r,4S)-4-(5-ethyl-2-fluorophenyl)cyclohexyl)methoxy)phenyl)-2-fluoro-2-methylpropanoic acid]	0.27 nM	2.22 nM
COc1ccc(F)c([C@H]2CC[C@H](CCc3cccc([C@@H](CC(=O)O)C4CC4)c3)CC2)c1 [Cpd 36, (S)-3-Cyclopropyl-3-(3-(2-((1r,4R)-4-(2-fluoro-5-methoxyphenyl)cyclohexyl)ethyl)phenyl) propanoic acid]	1.7 nM	9.2 nM
COc1cc([C@H]2CC[C@H](COc3cccc([C@@H](CC(=O)O)C4CC4)c3)CC2)c(F)cn1 [Cpd 9, (S)-3-Cyclopropyl-3-(3-(((1r,4S)-4-(5-fluoro-2-methoxypyridin-4-yl)cyclohexyl)methoxy)phenyl)propanoic acid]	0.5 nM	2.8 nM
COc1ccc(F)c([C@]2(OC)CC[C@H](COc3cccc([C@@H](CC(=O)O)C4CC4)c3)CC2)c1 [Cpd 12, (S)-3-Cyclopropyl-3-(3-(((1r,4S)-4-(2-fluoro-5-methoxyphenyl)-4-methoxycyclohexyl)methoxy)phenyl)propanoic acid]	13.8 nM	152 nM
COc1cc([C@H]2CC[C@@H](COc3ccnc(C(CC(=O)O)C4CC4)c3)CC2)c(F)cn1 (some centres unmarked) [Cpd 32, 3-Cyclopropyl-3-(4-(((1s,4s)-4-(5-fluoro-2-methoxypyridin-4-yl)cyclohexyl)methoxy)pyridine-2-yl)propanoic acid]	59 nM	256 nM
CCOc1cc([C@H]2CC[C@@H](COc3cc([C@@H](CC(=O)O)C4CC4)ccn3)CC2)c(F)cn1 [Cpd 48, (S)-3-cyclopropyl-3-(2-(((1s,4R)-4-(2-ethoxy-5-fluoropyridin-4-yl)cyclohexyl)methoxy)pyridin-4-yl)propanoic acid]	212 nM	676 nM
COc1ccc(F)c([C@H]2CC[C@@H](COc3cncc(C(CC(=O)O)C4CC4)c3)CC2)c1 (some centres unmarked) [Cpd 18, 3-Cyclopropyl-3-(5-(((1s,4s)-4-(2-fluoro-5-methoxyphenyl)cyclohexyl)methoxy)pyridin-3-yl)propanoic acid]	226 nM	
COc1ccc(F)c([C@]2(O)CC[C@H](COc3cccc([C@@H](CC(=O)O)C4CC4)c3)CC2)c1 [Cpd 6, (S)-3-Cyclopropyl-3-(3-(((1r,4S)-4-(2-fluoro-5-methoxyphenyl)-4-hydroxycyclohexyl)methoxy)phenyl)propanoic acid]	377 nM	
COc1cc([C@H]2CC[C@@H](COc3cccc(C(CC(=O)O)C4CC4)n3)CC2)c(F)cn1 (some centres unmarked) [Cpd 16, 3-Cyclopropyl-3-(6-(((1s,4s)-4-(5-fluoro-2-methoxypyridin-4-yl)cyclohexyl)methoxy)pyridin-2-yl)propanoic acid]	3080 nM	
COc1cc([C@H]2CC[C@@H](COc3cncc(C(CC(=O)O)C4CC4)c3)CC2)c(F)cn1 (some centres unmarked) [Cpd 23, 3-Cyclopropyl-3-(5-(((1s,4s)-4-(5-fluoro-2-methoxypyridin-4-yl)cyclohexyl)methoxy)pyridin-3-yl)propanoic acid]	307 nM	
COc1cc([C@H]2CC[C@H](COc3cccc(C(CC(=O)O)C4CC4)n3)CC2)c(F)cn1 (some centres unmarked) [Cpd 15, 3-Cyclopropyl-3-(6-(((1r,4r)-4-(5-fluoro-2-methoxypyridin-4-yl)cyclohexyl)methoxy)pyridin-2-yl)propanoic acid]	138 nM	
COc1ccc(F)c([C@H]2CC[C@@H](COc3cccc(C(CC(=O)O)C4CC4)n3)CC2)c1 (some centres unmarked) [Cpd 14, 3-Cyclopropyl-3-(6-(((1 s,4s)-4-(2-fluoro-5-methoxyphenyl)cyclohexyl)methoxy)pyridin-2-yl)propanoic acid]	1500 nM	

Reference: US10988433B2, “Cyclohexyl GPR40 agonists for the treatment of type II diabetes” (Janssen Pharmaceutica NV, priority 2016, dated 2021)
